# Test results published in patent US11319283B2, “Substituted cyclobutylbenzene compounds as indoleamine 2,3-dioxygenase (IDO) inhibitors” (MERCK SHARP & DOHME CORP., priority 2017, dated 2022).
# Assays:
# Assay type in all cases: cell-based
# TDO = molecular target: T1, TDO (Homo sapiens, UniProt P48775); test: TDO Cellular Assay in Frozen SW48 Cells; conditions: 300 uM L-tryptophan, about 48 hours, fluorescence readout
# T1 construct: endogenous in cells; host or cells: SW48 cells (A2780 cells as control with minimal TDO activity)
# T1 sequence (P48775 whole entry): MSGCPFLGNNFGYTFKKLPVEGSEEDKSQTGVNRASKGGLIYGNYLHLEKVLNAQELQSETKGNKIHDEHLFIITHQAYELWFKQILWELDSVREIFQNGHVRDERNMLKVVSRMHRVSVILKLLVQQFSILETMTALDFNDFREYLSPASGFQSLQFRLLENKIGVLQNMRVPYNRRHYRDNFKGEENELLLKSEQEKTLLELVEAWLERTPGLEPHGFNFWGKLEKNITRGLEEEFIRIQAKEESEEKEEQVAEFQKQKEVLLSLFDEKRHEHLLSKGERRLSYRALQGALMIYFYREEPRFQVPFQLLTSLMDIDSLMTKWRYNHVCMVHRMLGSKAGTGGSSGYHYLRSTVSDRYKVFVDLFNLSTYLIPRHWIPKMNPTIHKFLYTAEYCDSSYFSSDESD
# Outline: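 SW48 cells in RPMI with 300 uM L-tryptophan were incubated ~48 h at 37° C with compounds in ten 3-fold dilutions. Signal was corrected for A2780 background and normalised to DMSO-only SW48 wells, with IC50 from a four-parameter logistic fit.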
# IDO1 [1] = molecular target: T2, IDO1 (Homo sapiens, UniProt P14902); test: IDO1 Cellular Assay in Hela Cells Stimulated with IFNγ; set-up: endogenous in cells; host or cells: HeLa cells stimulated with IFNγ (100 ng/mL); conditions: Hela cells stimulated with IFNγ 100 ng/mL, 300 uM L-tryptophan, about 48 hours, fluorescence readout
# T2 sequence (P14902 whole entry): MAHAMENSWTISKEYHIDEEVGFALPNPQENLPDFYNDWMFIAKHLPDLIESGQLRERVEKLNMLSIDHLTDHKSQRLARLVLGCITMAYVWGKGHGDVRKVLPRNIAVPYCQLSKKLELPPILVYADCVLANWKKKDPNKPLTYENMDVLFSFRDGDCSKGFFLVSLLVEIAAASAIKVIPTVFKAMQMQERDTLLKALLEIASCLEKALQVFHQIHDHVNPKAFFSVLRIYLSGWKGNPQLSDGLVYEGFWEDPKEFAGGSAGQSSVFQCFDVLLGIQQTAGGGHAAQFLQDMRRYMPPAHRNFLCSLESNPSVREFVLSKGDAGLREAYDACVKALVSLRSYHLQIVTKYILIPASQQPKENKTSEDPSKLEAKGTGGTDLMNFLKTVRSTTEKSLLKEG
# Outline: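 HeLa cells with 300 uM L-tryptophan, IFNγ-stimulated (unstimulated cells as max-effect control), exposed to compound (ten 3-fold dilutions) for about 48 h at 37 °C. IC50 by four-parameter logistic fit.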
# IDO1 [2] = molecular target: T2, IDO1; test: IDO1 Human Whole Blood Assay; set-up: from tissue; host or cells: human whole blood from healthy donors, stimulated with LPS and IFNγ; conditions: LPS and IFNγ 100 ng/mL, overnight (18 h), kynurenine by LC/MS/MS
# Procedure: IDO1 Human Whole Blood Assay
# Compounds to be tested were serially diluted in ten 3-fold steps in DMSO starting from 10 mM. […] LPS and IFNγ was prepared in RPMI to a 10× of final conc. (1000 ng/mL), final concentration is 100 ng/mL.
# Human whole blood was drawn in sodium heparin coated tubes from healthy internal donors. […] of blood was transferred to each of the wells of a v-bottom 96 well plate. […] of compound was transferred from intermediate dilution plate, and incubated for 15 min. 30 μL from stimulants was then transferred to blood and mixed thoroughly. Plate was covered with breathable membrane and incubated at 37° C. for overnight (18 h).
# On day 2 isotope labeled standard of kynurenine and tryptophan was made in water at 10× concentration and […] was added to the blood at […] final concentration. The assay plates were centrifuged at 300×G for 10 min with no brake to separate plasma from red blood cells. […] of plasma samples was removed without disturbing red blood cells. Plasma was diluted with RPMI in 1:1 ratio and proteins were precipitated out with two volume of Acetonitrile. The plates was centrifuged at 4000×G for 60 min. 20 mL of supernatant was carefully transferred to a 384 well plate contain 40 mL of 0.1% formic acid in water and analyzed by LC/MS/MS.
# LC/MS/MS analyses were performed using Thermo Fisher's LX4-TSQ Quantum Ultra system. This system consists of four Agilent binary high-performance liquid chromatography (HPLC) pumps and a TSQ Quantum Ultra triple quadruple MS/MS instrument. For each sample, […] were injected onto an Atlantis T3 column (2.1 mm×150 mm, […]) from Waters. The mobile phase gradient pumped at 0.8 mL/min was used to elute the analytes from the column at 25° C. […] Mobile phase A consisted of 0.1% formic acid in water. Mobile phase B consisted of 0.1% of formic acid in acetonitrile. Data was acquired in positive mode using a HESI interface. The operational parameters for the TSQ Quantum Ultra instrument were a spray voltage of 4000 V, capillary temperature of 380° C., vaporizer temperature 400° C., shealth gas 60 arbitrary units, Aux gas 20 arbitrary units, tube lens 85 and collision gas 1.2 mTorr. […] The peak area was integrated by Xcalibur Quan software. The ratios between the kynurenine generated in the reaction and 2D6-Kynurenine spiked-in internal standard were used to generate percentage inhibition and IC50 values. Compounds were titrated and IC50's were calculated by 4 parameter sigmoidal curve fitting formula.
# IDO1 [3] = molecular target: T2, IDO1; test: IDO1 HEK293 Cellular Assay; conditions: HEK293 cells transfected with Flag-IDO1 vector, 20-24 hours, fluorescence readout
# Procedure: IDO1 HEK293 Cellular Assay
# Compounds to be tested were serially diluted in ten 3-fold steps in DMSO starting from 10 mM DMSO stocks. Compound dilutions or DMSO alone were then dispensed from the dilution plate into a Greiner black 384-well assay plate (catalog #781086) using an Echo 550 acoustic liquid handler (Labcyte).
# HEK293 cell pellets were resuspended to 5×10^5 cells/mL in complete HEK293 culture media (89% DMEM, 10% FBS, 1% penicillin/streptomycin). Suspended cells (2 mL) were dispensed into each well of a 6-well Corning plate (Catalog #3516). Cells were allowed to attach and were incubated for 20 hours at 37° C. in a 5% CO2 incubator. Flag-IDO1 vector (Genscript True ORF Gold, 2 ug) in 150 uL of Opti-MEM medium was added to each well of a Corning 24 well plate (Cat #3527) and incubated for 5 minutes at room temperature. To each well of the 24-well plate was added […] Lipofectamine 2000 (Gibco) and the plate incubated at room temperature for 20-30 minutes. To each well of attached cells in the 6-well plate, […] of the transfection mix from the 24-well plate was gently added to each well and IDO1 protein was allowed to express for 24-30 hours at 37 degrees Celsius in a 5% CO2 incubator.
# Media was removed from the cells which were then washed with 2 mL Dulbecco's phosphate-buffered saline (DPBS). After removal of DPBS, 0.5 mL of TrypLE (Gibco) was added and incubated at 5 minutes until cells lift from the surface of the wells. Complete HEK293 culture media (4 mL) was added to each well and cells were collected and pooled into a conical tube. Cells were pelleted at 200×g for 5 minutes and resuspended in an equal volume of complete DMEM medium. Cells were diluted to 4×10^5 cells per mL in complete HEK293 media. L-Tryptophan was added to give a final concentration of […]. The diluted transfected cells […] or nontransfected cells […] were dispensed into wells of Greiner black 384-well assay plates (catalog #781086) containing previously diluted compounds. The plate is briefly mixed and centrifuged at 200×g for 10 seconds to collect cells at the bottom of the plate. Plates were covered and incubated for 20-24 hours at 37 degrees C. in a 5% CO2 incubator. Afterwards […] of 0.5 M methyl isonipecotate in dimethyl sulfoxide was added to each well, mixed, sealed, and centrifuged at 500 rpm for 10 seconds. Plates were incubated at 37 degrees in a 5% CO2 incubator overnight to develop fluoresence. The plates are allowed to cool and then centrifuged for 1 minute at 1000×g. The resulting fluoresence was measured in an Envision plate reader (Perkin Elmer) with a 400/25 nm excitation filter and an 510/20 nm emission filter.
# The fluoresence intensity of each well was corrected for the background observed in wells with untransfected cells and was expressed as a fraction of the intensity observed in wells of IDO1 transfected cells and DMSO only. Potencies were calculated by linear least squares fit to the four parameter logistic IC50 equation.
IC50 (TDO),IC50 (IDO1 [1]),IC50 (IDO1 [2]),IC50 (IDO1 [3]),SMILES
≥ 10000 nM,4 nM,345 nM,,"O=C(Nc1ccc(C2(NC(=O)c3ccc(Cl)nc3)CCC2)cc1)c1cccc(Cl)c1 [Example 7, 6-chloro-N-(1-{4-[(3-chlorobenzene-1-carbonyl)amino]phenyl}cyclobutyl)pyridine-3-carboxamide]"
585 nM,28 nM,,16 nM,"O=C(Nc1ccc(C2(NC(=O)c3ncco3)CCC2)cc1)c1cccc(Cl)c1 [Example 12, N-(1-{4-[(3-chlorobenzene-1-carbonyl)amino]phenyl}cyclobutyl)-1,3-oxazole-2-carboxamide]"
1210 nM,39 nM,,23 nM,"O=C(Nc1ccc(C2(NC(=O)c3cscn3)CCC2)cc1)c1cccc(Cl)c1 [Example 14, N-(1-{4-[(3-chlorobenzene-1-carbonyl)amino]phenyl}cyclobutyl)-1,3-thiazole-4-carboxamide]"
2510 nM,53 nM,,14 nM,"O=C(Nc1ccc(C2(NC(=O)c3nccs3)CCC2)cc1)c1cccc(Cl)c1 [Example 15, N-(1-{4-[(3-chlorobenzene-1-carbonyl)amino]phenyl}cyclobutyl)-1,3-thiazole-2-carboxamide]"
≥ 10000 nM,108 nM,,125 nM,"O=C(Nc1ccc(C2(NC(=O)c3ccc(Cl)cc3)CCC2)cc1)c1cncnc1 [Example 17, N-(4-{1-[(4-chlorobenzene-1-carbonyl)amino]cyclobutyl}phenyl)pyrimidine-5-carboxamide]"
≥ 10000 nM,92 nM,,92 nM,"O=C(Nc1ccc(C2(NC(=O)c3cncnc3)CCC2)cc1)c1cccc(Cl)c1 [Example 18, N-(1-{4-[(3-chlorobenzene-1-carbonyl)amino]phenyl}cyclobutyl)pyrimidine-5-carboxamide]"
≥ 10000 nM,2 nM,336 nM,,"O=C(Nc1ccc(C2(NC(=O)c3ccc(Cl)cc3)CCC2)cc1)c1cccc(Cl)c1 [Example 19, 3-Chloro-N-(4-(1-(4-chlorobenzamido)cyclobutyl)phenyl)benzamide]"
≥ 10000 nM,4 nM,253 nM,,"O=C(Nc1ccc(C2(C(=O)Nc3ccc(F)cn3)CCC2)cc1)c1cccc(Cl)c1 [Example 28, 3-chloro-N-(4-{1-[(5-fluoropyridin-2-yl)carbamoyl]cyclobutyl}phenyl)benzamide]"
≥ 10000 nM,5 nM,795 nM,,"O=C(Nc1ccc(C2(C(=O)NC3CCCCC3)CCC2)cc1)c1cccc(Cl)c1 [Example 30, 3-chloro-N-{4-[1-(cyclohexylcarbamoyl)cyclobutyl]phenyl} benzamide]"
≥ 10000 nM,12 nM,738 nM,,O=C(Nc1ccc(C2(C(=O)N[C@@H]3C[C@H]3C(F)(F)F)CCC2)cc1)c1cccc(Cl)c1 [Example 32]
≥ 10000 nM,15 nM,1880 nM,,"O=C(Nc1ccc(C2(C(=O)NC3CCC(F)(F)CC3)CCC2)cc1)c1cccc(Cl)c1 [Example 33, 3-chloro-N-(4-{1-[(4,4-difluorocyclohexyl)carbamoyl]cyclobutyl}phenyl) benzamide]"
≥ 10000 nM,24 nM,1600 nM,,"Cn1ccc(NC(=O)C2(c3ccc(NC(=O)c4cccc(Cl)c4)cc3)CCC2)n1 [Example 35, 3-chloro-N-(4-{1-[(1-methyl-1H-pyrazol-3-yl)carbamoyl]cyclobutyl}phenyl)benzamide]"
≥ 10000 nM,2 nM,70 nM,,"O=C(Nc1ccc(C2(C(=O)Nc3ccc(F)cc3)CC(F)(F)C2)cc1)c1cccc(Cl)c1 [Example 63, 3-chloro-N-(4-(3,3-difluoro-1-((4-fluorophenyl)carbamoyl)cyclobutyl)phenyl)benzamide]"
≥ 10000 nM,5 nM,219 nM,,"O=C(Nc1ccc(C2(C(=O)Nc3ccc(F)cn3)CCC2)cc1CO)c1cccc(Cl)c1 [Example 85, 3-chloro-N-[4-{1-[(5-fluoropyridin-2-yl)carbamoyl]cyclobutyl}-2-(hydroxymethyl)phenyl] benzamide]"
≥ 10000 nM,2 nM,57 nM,,"N#Cc1cccc(C(=O)Nc2ccc(C3(C(=O)Nc4ccc(Cl)nc4)CCC3)cc2)c1 [Example 88, N-(4-{1-[(6-chloropyridin-3-yl)carbamoyl]cyclobutyl}phenyl)-3-cyanobenzamide]"
